This note sets out measurements from ChEMBL document CHEMBL5143515, “Identification of new halogen-containing 2,4-diphenyl indenopyridin-5-one derivative as a boosting agent for the anticancer responses of clinically available topoisomerase inhibitors” (Eur J Med Chem, 2022).

Experiment [1] concerns the target T1, DNA topoisomerase 1 (Homo sapiens) (UniProt P11387).
T1 sequence (whole entry): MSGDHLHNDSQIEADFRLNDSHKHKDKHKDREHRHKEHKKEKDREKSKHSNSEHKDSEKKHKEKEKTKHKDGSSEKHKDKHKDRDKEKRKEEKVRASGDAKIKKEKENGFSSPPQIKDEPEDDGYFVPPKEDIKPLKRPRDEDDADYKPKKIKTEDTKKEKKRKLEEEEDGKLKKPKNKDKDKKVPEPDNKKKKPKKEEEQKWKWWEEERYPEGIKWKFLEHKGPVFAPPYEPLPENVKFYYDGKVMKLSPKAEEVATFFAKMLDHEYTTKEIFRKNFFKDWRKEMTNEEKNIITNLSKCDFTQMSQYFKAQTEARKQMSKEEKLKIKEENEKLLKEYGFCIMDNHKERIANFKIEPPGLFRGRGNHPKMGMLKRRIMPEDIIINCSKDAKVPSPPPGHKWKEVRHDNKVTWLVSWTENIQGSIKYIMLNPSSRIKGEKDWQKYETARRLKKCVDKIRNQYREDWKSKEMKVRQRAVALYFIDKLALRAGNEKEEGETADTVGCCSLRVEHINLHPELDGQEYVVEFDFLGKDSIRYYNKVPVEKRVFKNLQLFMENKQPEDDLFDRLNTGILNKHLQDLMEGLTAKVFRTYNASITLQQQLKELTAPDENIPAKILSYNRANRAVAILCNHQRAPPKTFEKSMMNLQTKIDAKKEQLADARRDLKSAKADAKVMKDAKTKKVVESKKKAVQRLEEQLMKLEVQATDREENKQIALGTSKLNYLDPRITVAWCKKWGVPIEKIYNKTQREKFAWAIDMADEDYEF
Description: Inhibition of recombinant human topoisomerase 1 assessed as relaxation of supercoiled plasmid pBR322 DNA at 100 uM by agarose gel electrophoresis (reference value: 90.6%).

In another experiment the test system is HeLa. Description: Antiproliferative activity against human HeLa cells after 72 hrs by EZ-Cytox colorimetric assay. It is filed as functional, cell-based.
Another experiment has as its system T47D. Description: Antiproliferative activity against human T47D cells after 72 hrs by EZ-Cytox colorimetric assay. It is filed as functional, cell-based.
Experiment [2] deals with DNA topoisomerase 2-alpha (Homo sapiens) (UniProt P11388). Description: Inhibition of recombinant human topoisomerase 2alpha assessed as relaxation of supercoiled plasmid pBR322 DNA at 100 uM by agarose gel electrophoresis (reference value: […]%).
Another experiment relates to HCT-15. Kind of experiment: Antiproliferative activity against human HCT-15 cells after 72 hrs by EZ-Cytox colorimetric assay. It counts as functional, cell-based. The conditions noted are these: HCT-15, 72 h.
A further experiment concerns DU-145. Kind of experiment: Antiproliferative activity against human DU-145 cells after 72 hrs by EZ-Cytox colorimetric assay. It is filed as functional, cell-based. To be noted: DU-145, 72 h.
For experiment [3], the target named is T1, DNA topoisomerase 1 (Homo sapiens). Description: Inhibition of recombinant human topoisomerase 1 assessed as relaxation of supercoiled plasmid pBR322 DNA at 20 uM by agarose gel electrophoresis (reference value: 38.3%).
Experiment [4] shares this target. Description: Inhibition of recombinant human topoisomerase 1 assessed as relaxation of supercoiled plasmid pBR322 DNA at 100 uM by agarose gel electrophoresis (reference value: 81.9%).
The target of experiment [5] is DNA topoisomerase 2-alpha (Homo sapiens) (UniProt P11388). Description: Inhibition of recombinant human topoisomerase 2alpha assessed as relaxation of supercoiled plasmid pBR322 DNA at 100 uM by agarose gel electrophoresis (reference value: 81%).
In experiment [6] the target is T1, DNA topoisomerase 1 (Homo sapiens). Kind of experiment: Inhibition of recombinant human topoisomerase 1 assessed as relaxation of supercoiled plasmid pBR322 DNA at 20 uM by agarose gel electrophoresis (reference value: 40.4%).
For experiment [7] the target is unchanged. Description: Inhibition of recombinant human topoisomerase 1 assessed as relaxation of supercoiled plasmid pBR322 DNA at 100 uM by agarose gel electrophoresis (reference value: 83.2%).
In experiment [8] the target is DNA topoisomerase 2-alpha (Homo sapiens) (UniProt P11388). Description: Inhibition of recombinant human topoisomerase 2alpha assessed as relaxation of supercoiled plasmid pBR322 DNA at 100 uM by agarose gel electrophoresis (reference value: 82.2%).
The target is the same in experiment [9]. Description: Inhibition of recombinant human topoisomerase 2alpha assessed as relaxation of supercoiled plasmid pBR322 DNA at 20 uM by agarose gel electrophoresis (reference value: 48.4%).
Experiment [10] has the same target. Kind of experiment: Inhibition of recombinant human topoisomerase 2alpha assessed as relaxation of supercoiled plasmid pBR322 DNA at 20 uM by agarose gel electrophoresis relative to control.
Experiment [11] has the same target. Kind of experiment: Inhibition of recombinant human topoisomerase 2alpha assessed as relaxation of supercoiled plasmid pBR322 DNA at 100 uM by agarose gel electrophoresis (reference value: 84.9%).
Experiment [12] deals with T1, DNA topoisomerase 1 (Homo sapiens). Kind of experiment: Inhibition of recombinant human topoisomerase 1 assessed as relaxation of supercoiled plasmid pBR322 DNA at 100 uM by agarose gel electrophoresis (reference value: […]%).

Each structure is given as a SMILES string. Where a name gives a salt, the structure may show the parent alone.

DNA topoisomerase 2-alpha (Homo sapiens), sequence (P11388 whole entry): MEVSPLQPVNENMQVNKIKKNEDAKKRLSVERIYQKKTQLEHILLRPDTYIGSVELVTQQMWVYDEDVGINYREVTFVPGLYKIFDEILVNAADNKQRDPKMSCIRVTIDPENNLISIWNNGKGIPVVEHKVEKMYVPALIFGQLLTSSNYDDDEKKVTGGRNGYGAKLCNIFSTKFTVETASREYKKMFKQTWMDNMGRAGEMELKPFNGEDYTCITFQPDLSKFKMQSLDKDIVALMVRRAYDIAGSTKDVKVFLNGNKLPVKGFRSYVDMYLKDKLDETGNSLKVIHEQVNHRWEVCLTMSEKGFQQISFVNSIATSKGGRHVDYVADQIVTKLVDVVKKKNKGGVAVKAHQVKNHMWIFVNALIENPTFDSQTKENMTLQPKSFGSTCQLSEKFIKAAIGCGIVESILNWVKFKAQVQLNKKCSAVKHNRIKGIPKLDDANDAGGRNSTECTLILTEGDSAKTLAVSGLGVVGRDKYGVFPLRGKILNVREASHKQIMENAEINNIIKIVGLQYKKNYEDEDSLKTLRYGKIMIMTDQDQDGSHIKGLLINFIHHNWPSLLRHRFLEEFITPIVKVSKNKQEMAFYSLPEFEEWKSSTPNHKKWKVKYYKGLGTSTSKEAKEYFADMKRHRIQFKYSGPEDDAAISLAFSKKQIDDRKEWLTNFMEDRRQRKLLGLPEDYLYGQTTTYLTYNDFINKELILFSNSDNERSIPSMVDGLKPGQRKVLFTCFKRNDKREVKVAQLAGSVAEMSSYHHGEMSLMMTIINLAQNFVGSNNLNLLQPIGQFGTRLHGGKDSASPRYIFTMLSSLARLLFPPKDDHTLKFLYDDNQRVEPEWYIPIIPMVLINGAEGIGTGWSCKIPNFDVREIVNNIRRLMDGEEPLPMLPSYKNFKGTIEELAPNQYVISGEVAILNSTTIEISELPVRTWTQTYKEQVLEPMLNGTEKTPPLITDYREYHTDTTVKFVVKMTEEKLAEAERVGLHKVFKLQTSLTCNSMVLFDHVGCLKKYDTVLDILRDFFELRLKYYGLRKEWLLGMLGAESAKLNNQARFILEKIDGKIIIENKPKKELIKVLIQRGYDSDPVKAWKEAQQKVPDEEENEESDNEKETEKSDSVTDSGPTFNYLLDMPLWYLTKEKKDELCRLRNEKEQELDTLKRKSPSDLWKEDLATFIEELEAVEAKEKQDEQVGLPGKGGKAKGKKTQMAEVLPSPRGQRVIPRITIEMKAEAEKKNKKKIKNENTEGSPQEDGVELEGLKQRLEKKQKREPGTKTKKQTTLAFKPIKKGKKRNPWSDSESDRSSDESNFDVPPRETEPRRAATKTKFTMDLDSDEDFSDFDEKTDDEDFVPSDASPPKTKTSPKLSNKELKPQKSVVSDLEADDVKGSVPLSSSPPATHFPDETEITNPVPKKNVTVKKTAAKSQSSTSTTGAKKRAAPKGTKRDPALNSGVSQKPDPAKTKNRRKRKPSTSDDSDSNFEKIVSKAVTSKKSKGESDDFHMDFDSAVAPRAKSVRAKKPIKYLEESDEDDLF

Take `OC1c2ccccc2-c2nc(-c3ccc(Br)cc3)cc(-c3ccccc3)c21` (configuration not stated): the inhibition in [1] worked out at 10.5%; in experiment [2], 0%. Further, the 50% inhibitory concentration (IC50) with HeLa is more than 50 µM; with T47D, 28.7 µM; in the experiment on HCT-15, more than 50 µM; in the experiment with DU-145 it was 2.11 µM.
Take `O=C1c2ccccc2-c2nc(-c3ccc(OC(F)(F)F)cc3)cc(-c3ccccc3)c21`: the IC50 in the experiment on HeLa was found to be 35.5 µM; in the experiment on T47D, 2.69 µM; in the experiment with HCT-15 it was 9.7 µM; in the experiment on DU-145, 9.63 µM. Also, the inhibition amounted to 3.7% in experiment [3], 34.3% in experiment [4] and 6.5% in experiment [5].
Regarding `O=C1c2ccccc2-c2nc(-c3ccc(Cl)cc3)cc(-c3ccccc3)c21`, the inhibition in experiment [6] came to 0%; in [7], 80.4%; in experiment [8], 91.3%; in experiment [9] it was 60%. Further, the IC50 with HeLa is more than 50 µM; in the experiment with T47D, more than 50 µM; in the experiment on HCT-15 it was more than 50 µM; in the experiment with DU-145, 5.76 µM.
`COc1cccc2c1C(=O)c1c(O)c3c(c(O)c1C2=O)C[C@@](O)(C(=O)CO)C[C@@H]3O[C@H]1C[C@H](N)[C@H](O)[C@H](C)O1` [DOXORUBICIN HYDROCHLORIDE]: the IC50 was 1.36 µM with HeLa, 1.48 µM in the experiment with T47D, 136 µM in the experiment on HCT-15 and 2.99 µM in the experiment with DU-145.
With `OC1c2ccccc2-c2nc(-c3ccc(C(F)(F)F)cc3)cc(-c3ccccc3)c21` (configuration not stated), the inhibition in experiment [10] turned out to be 9.9%; in experiment [11] it was 51.2%; in experiment [12], 13.8%. For the same compound, the IC50 is more than 50 µM with HeLa, 24.8 µM in the experiment on T47D, more than 50 µM with HCT-15 and 338 µM in the experiment with DU-145.
For the compound `O=C1c2ccccc2-c2nc(-c3cccc(Cl)c3)cc(-c3ccccc3)c21`, the inhibition in [6] is 0%; in experiment [7] it was 85.7%; in experiment [8], 98.1%; in [9], 89.2%. Further, the IC50 with HeLa was more than 50 µM; with T47D, more than 50 µM; with HCT-15, 23.4 µM; in the experiment on DU-145 it was 14.4 µM.
In the case of `O=C1c2ccccc2-c2nc(-c3ccccc3OC(F)(F)F)cc(-c3ccccc3)c21`, the 50% inhibitory concentration (IC50) with HeLa is more than 50 µM; in the experiment with T47D, more than 50 µM; with HCT-15, 14.7 µM; with DU-145, 10.7 µM. Also, the inhibition came to 0% in [3], 35% in experiment [4] and 0.6% in experiment [5].
`OC1c2ccccc2-c2nc(-c3ccc(Cl)cc3)cc(-c3ccccc3)c21` (configuration not stated): the inhibition in experiment [1] came out at 6.3%; in [2] it was 0%. Moreover, the IC50 was more than 50 µM in the experiment with HeLa, more than 50 µM with T47D, more than 50 µM in the experiment with HCT-15 and 35.1 µM in the experiment on DU-145.
Take `O=C1c2ccccc2-c2nc(-c3cccc(F)c3)cc(-c3ccccc3)c21`: the inhibition in experiment [6] is 0%; in experiment [7], 34.2%; in [8], 0%. In addition, the IC50 in the experiment with HeLa, in the experiment on T47D, in the experiment with HCT-15 and in the experiment with DU-145 was more than 50 µM each time.
Turning to `O=C1c2ccccc2-c2nc(-c3ccc(F)cc3)cc(-c3ccccc3)c21`, the inhibition in [6] stood at 0%; in [7], 34.7%; in experiment [8] it was 36.9%; in [9], 2.5%. In addition, the IC50 with HeLa is more than 50 µM; in the experiment on T47D, more than 50 µM; with HCT-15 it was 33.3 µM; in the experiment on DU-145, 20.7 µM.
With `O=C1c2ccccc2-c2nc(-c3cccc(OC(F)(F)F)c3)cc(-c3ccccc3)c21`, the concentration for half-maximal inhibition (IC50) in the experiment with HeLa is more than 50 µM; in the experiment on T47D it was 16.8 µM; in the experiment on HCT-15, 27.6 µM; with DU-145, 17.8 µM. Also, the inhibition in [3] turned out to be 8.5%; in experiment [4] it was 100%; in experiment [5], 0.5%.
Consider `O=C1c2ccccc2-c2nc(-c3cccc(Br)c3)cc(-c3ccccc3)c21`, for which the inhibition in experiment [6] is 0%; in experiment [7], 82.9%; in experiment [8], 83.8%; in experiment [9], 5.3%. Moreover, the IC50 with HeLa came out at 20.2 µM; in the experiment with T47D, 28 µM; in the experiment with HCT-15 it was 17.9 µM; in the experiment with DU-145, 9.48 µM.
In the case of `OC1c2ccccc2-c2nc(-c3cccc(F)c3)cc(-c3ccccc3)c21` (configuration not stated), the inhibition in [1] stood at 6.1%; in experiment [2] it was 0%. In addition, the IC50 with HeLa, with T47D, in the experiment on HCT-15 and in the experiment on DU-145 was more than 50 µM throughout.
With `O=C1c2ccccc2-c2nc(-c3ccccc3Cl)cc(-c3ccccc3)c21`, the inhibition worked out at 0% in experiment [6], 66.7% in [7], 93.3% in [8] and 71.8% in [9]. Also, the IC50 with HeLa, with T47D, in the experiment with HCT-15 and in the experiment with DU-145 was more than 50 µM throughout.
As to `OC1c2ccccc2-c2nc(-c3ccccc3Br)cc(-c3ccccc3)c21` (configuration not stated), the figures for the inhibition in experiment [1] and in [2] were 12.6% and 0.2%, respectively. The half-inhibitory concentration (IC50) worked out at 16 µM with HeLa, 1.55 µM with T47D, 7.03 µM in the experiment on HCT-15 and 6.48 µM in the experiment with DU-145.
As for `OC1c2ccccc2-c2nc(-c3cccc(Cl)c3)cc(-c3ccccc3)c21` (configuration not stated), the inhibition in experiment [1] stood at 7.6%; in experiment [2], 0%. Also, the IC50 with HeLa, in the experiment on T47D, in the experiment on HCT-15 and in the experiment with DU-145 was more than 50 µM each time.
`OC1c2ccccc2-c2nc(-c3ccccc3Cl)cc(-c3ccccc3)c21` (configuration not stated): the inhibition in experiment [1] amounted to 7.6%; in experiment [2], 0%. Moreover, the IC50 in the experiment with HeLa turned out to be 10.4 µM; in the experiment with T47D it was 1.48 µM; with HCT-15, 3.37 µM; in the experiment on DU-145 it was 0.41 µM.
As for `O=C1c2ccccc2-c2nc(-c3ccccc3Br)cc(-c3ccccc3)c21`, the inhibition in experiment [6] amounted to 0%; in experiment [7], 82.9%; in experiment [8] it was 93.4%; in [9], 60.4%. Besides, the half-maximal inhibitory concentration (IC50) was more than 50 µM in the experiment on HeLa, more than 50 µM in the experiment with T47D, more than 50 µM with HCT-15 and 8.42 µM in the experiment with DU-145.
Regarding `OC1c2ccccc2-c2nc(-c3ccc(F)cc3)cc(-c3ccccc3)c21` (configuration not stated), the values for the inhibition in [1] and in experiment [2] were 7.1% and 0%, respectively. In addition, the concentration for half-maximal inhibition (IC50) in the experiment with HeLa, in the experiment on T47D, with HCT-15 and in the experiment with DU-145 was more than 50 µM in each case.
`OC1c2ccccc2-c2nc(-c3cccc(Br)c3)cc(-c3ccccc3)c21` (configuration not stated): the figures for the inhibition in experiment [1] and in [2] were 8.6% and 0%, respectively. For the same compound, the IC50 with HeLa is more than 50 µM; in the experiment on T47D, more than 50 µM; with HCT-15, more than 50 µM; with DU-145, 43.2 µM.
Turning to `OC1c2ccccc2-c2nc(-c3ccccc3F)cc(-c3ccccc3)c21` (configuration not stated), the inhibition in [1] is 6.7%; in experiment [2], 0%. The concentration for half-maximal inhibition (IC50) in the experiment with HeLa, in the experiment on T47D, in the experiment with HCT-15 and with DU-145 was more than 50 µM throughout.
As for `O=C1c2ccccc2-c2nc(-c3ccccc3F)cc(-c3ccccc3)c21`, the inhibition in [7] came out at 26.7%; in experiment [8] it was 0%. Besides, the half-inhibitory concentration (IC50) is more than 50 µM in the experiment with HeLa, more than 50 µM in the experiment on T47D, 49.2 µM with HCT-15 and more than 50 µM in the experiment with DU-145.

By inhibition is commonly meant the relative decrease from the control value, in per cent. What is called IC50 is the concentration that inhibits the measured activity by half. Low readings indicate inhibition by little substance, high ones a need for much substance.
